Measurements as given in ChEMBL document CHEMBL4840342, “The spectrum between substrates and inhibitors: Pinpointing the binding mode of dengue protease ligands with modulated basicity and hydrophobicity” (Bioorg Med Chem, 2021).
Residues, ends and D or L forms follow the SMILES beside them. *: point of attachment. NHBn = c1ccc(CN*)cc1; Bz = O=C(c1ccccc1)*; NHiPr = CC(C)N*

What was measured:
[1] = target: Genome polyprotein (dengue virus type 2) (UniProt P29990); assay: Inhibition of Dengue virus 2 NS2B-NS3 protease using Abz-Nle-Lys-Arg-Arg-Ser-Tyr(3-NO2)-NH2 as substrate at 50 uM preincubated with enzyme for 15 mins followed by substrate addition and measured for 15 mins by FRET assay relative to control; details: time 30.0 min
[2] = target: Genome polyprotein (dengue virus type 2, UniProt P29990); assay: Inhibition of Dengue virus 2 NS2B-NS3 protease using Abz-Nle-Lys-Arg-Arg-Ser-Tyr(3-NO2)-NH2 as substrate preincubated with enzyme for 15 mins followed by substrate addition and measured for 15 mins by FRET assay relative to control

Structure (SMILES): N=C(N)NCCC[C@H](NC(=O)c1ccccc1)C(=O)N[C@@H](CCCCN)C(=O)NCc1ccccc1 (Bz-Arg-Lys-NHBn)
- inhibition [1]: 41.3%

Structure (SMILES): N=C(N)NCCC[C@H](NC(=O)c1ccccc1)C(=O)N[C@@H](CCCCN)C(=O)N[C@@H](C(=O)NCc1ccc(C(N)=O)cc1)c1ccc(OCc2ccccc2)cc1
- inhibition [1]: 103%
- IC50 [2]: 0.4 µM

Structure (SMILES): NCCCC[C@H](NC(=O)c1ccccc1)C(=O)N[C@@H](Cc1ccc(N)cc1)C(=O)NCc1ccc(OCc2ccccc2)cc1
- inhibition [1]: < 20%

Structure (SMILES): N=C(N)NCCC[C@H](NC(=O)c1ccccc1)C(=O)N[C@@H](CCCCN)C(=O)NCCc1ccc(OCc2ccccc2)cc1
- inhibition [1]: 63.9%

Structure (SMILES): NCCCC[C@H](NC(=O)c1ccccc1)C(=O)N[C@@H](C(=O)N[C@@H](C(N)=O)C1CCCCC1)c1ccc(OCc2ccccc2)cc1
- inhibition [1]: 98%
- IC50 [2]: 7.9 µM

Structure (SMILES): NCCCC[C@H](NC(=O)[C@@H](NC(=O)c1ccccc1)c1ccc(OCc2ccccc2)cc1)C(=O)N[C@@H](C(N)=O)c1ccc(OCc2ccccc2)cc1
- inhibition [1]: 98.8%
- IC50 [2]: 6.6 µM

Structure (SMILES): N=C(N)NCCC[C@H](NC(=O)c1ccccc1)C(=O)N[C@@H](CCCCN)C(=O)N[C@@H](C(=O)NCc1ccc(CN)cc1)c1ccc(OCc2ccccc2)cc1
- inhibition [1]: 99.7%
- IC50 [2]: 0.3 µM

Structure (SMILES): N=C(N)NCCC[C@H](NC(=O)c1ccccc1)C(=O)N[C@H](Cc1ccc(N)cc1)C(=O)NCc1ccc(OCc2ccccc2)cc1
- inhibition [1]: 29.1%

Structure (SMILES): NCCCC[C@H](NC(=O)c1ccccc1)C(=O)N[C@@H](C(=O)N[C@H](C(N)=O)C1CCCCC1)c1ccc(OCc2ccccc2)cc1
- inhibition [1]: 99.6%
- IC50 [2]: 9.4 µM

Structure (SMILES): N=C(N)Nc1ccc(C[C@H](NC(=O)[C@@H](NC(=O)c2ccccc2)c2ccc(OCc3ccccc3)cc2)C(=O)N[C@@H](C(N)=O)c2ccc(OCc3ccccc3)cc2)cc1
- inhibition [1]: 101%
- IC50 [2]: 1.7 µM

Structure (SMILES): NCCCC[C@H](NC(=O)c1ccccc1)C(=O)N[C@H](C(=O)N[C@H](C(N)=O)C1CCCCC1)c1ccc(OCc2ccccc2)cc1
- inhibition [1]: 93.1%
- IC50 [2]: 9.9 µM

Structure (SMILES): N=C(N)NCCC[C@H](NC(=O)c1ccccc1)C(=O)N[C@@H](Cc1ccc(N)cc1)C(=O)NCc1ccc(OCc2ccccc2)cc1
- inhibition [1]: 69.3%

Structure (SMILES): CC[C@@H](C)[C@H](NC(=O)[C@H](NC(=O)[C@H](CCCCN)NC(=O)[C@H](CCCNC(=N)N)NC(=O)c1ccccc1)c1ccc(OCc2ccccc2)cc1)C(N)=O
- inhibition [1]: 58.1%

Structure (SMILES): N=C(N)NCCC[C@H](NC(=O)c1ccccc1)C(=O)N[C@@H](CCCCN)C(=O)NCc1ccc(OCc2ccccc2)cc1
- inhibition [1]: 63.3%

Structure (SMILES): N=C(N)NCCC[C@H](NC(=O)c1ccccc1)C(=O)N[C@@H](CCCCN)C(=O)N[C@@H](C(=O)N[C@H](C(N)=O)C1CCCCC1)c1ccc(OCc2ccccc2)cc1
- inhibition [1]: 95.9%
- IC50 [2]: 13.7 µM

Structure (SMILES): N=C(N)NCCC[C@H](NC(=O)c1ccccc1)C(=O)N[C@@H](CCCCN)C(=O)Nc1ccc(OCc2ccccc2)cc1
- inhibition [1]: 59.8%

Structure (SMILES): NCCCC[C@H](NC(=O)c1ccccc1)C(=O)N[C@H](Cc1ccc(N)cc1)C(=O)NCc1ccc(OCc2ccccc2)cc1
- inhibition [1]: 94.5%
- IC50 [2]: 35.8 µM

Structure (SMILES): CC(C)NC(=O)[C@H](CCCCN)NC(=O)[C@H](CCCNC(=N)N)NC(=O)c1ccccc1 (Bz-Arg-Lys-NHiPr)
- inhibition [1]: 28.8%
